According to patent publication EP1268431B1 (Wyeth, priority 2000, dated 2001):
Several values for one entry are separate records, joined by “and”; a condition that tells them apart may be missing. Identical values can stand only once. Like-named read-outs stand apart in the source and are kept apart here.

Columns and labels:
c-Src = molecular target: T1, c-Src (Homo sapiens, UniProt P12931); assay: c-Src Kinase Assay (ELISA format); type: biochemical
T1 construct: purchased Upstate Biotechnologies
Protocol: Inhibitors of Src (partially purified preparation purchased from Upstate Biotechnologies) tyrosine kinase activity are analyzed in an ELISA format. […] Horseradish Peroxidase (HRP)-conjugated anti-phosphotyrosine is used to detect phosphorylated peptide via a color reaction. Conditions recommended by the manufacturer are employed.
Reaction conditions: Five microliter aliquots of each compound prepared fresh at the time of the assay are added as a solution in 10mM HEPES pH 7.5, 10% DMSO to the reaction well. Thirty-five microliters of reaction mix containing Src, buffer and peptide/bovine serum albumin mix are added to the compound wells and incubated at 30°C for 10 minutes (reaction buffer: 50mM TrisHCl pH 7.5, 10mM MgCl2, 0.1mM EGTA, 0.5mM Na3VO4). The reaction is started by addition of 10 microliters of ATP, incubated at 30°C for 1 hour, and stopped by addition of 20 microliters of 0.5M EDTA. The reaction mixture with the phosphorylated peptide is then transferred to a streptavidin-coated microtiter plate (provided in the kit) and allowed to bind for 20 minutes. Unbound peptide and reaction mixture is decanted and the plate is washed with PBS six times. HRP-conjugated phosphotyrosine antibody supplied in the kit is incubated with the plate for one hour, then decanted. The plate is again washed with PBS six times.
Activity is determined as % inhibition as calculated by the formula: (1 - Abs/Abs(max)) x 100 = % inhibition.

[1] = tested on: Rat2 fibroblasts stably transformed with a plasmid containing a CMV promotor controlled v-Src/Hu c-Src fusion gene; assay: Anchorage Independent Src-transformed Fibroblast Proliferation Assay
[2] = Rattus norvegicus, Rat2, 120 h, read-out: anch-indep src-tx fib IC50, suspension growth, MTS on Day 5
[3] = read-out: anch-indep src-tx fib IC50, suspension growth, MTS on Day 5

Row | IC50 (c-Src) | Molecule | IC50 [1, 2] | IC50 [1, 3]
1 | 21 nM | COc1cc(Nc2c(C#N)cnc3cc(-c4ccc(CNCCS(C)(=O)=O)o4)ccc23)c(Cl)cc1Cl [Example 77, 4-(2,4-Dichloro-5-methoxyanilino)-7-[5-({[2-(methylsulfonyl)ethyl]amino}methyl)-2-furyl]-3-quinolinecarbonitrile] | 420 nM | 
2 | 2 nM | COc1ccc(Cl)c(Nc2c(C#N)cnc3cc(-c4csc(CN5CCOCC5)c4)ccc23)c1 [Example 131, 4-(2-chloro-5-methoxyanilino)-7-[5-(4-morpholinylmethyl)-3-thienyl]-3-quinolinecarbonitrile] | 90 nM | 
3 | 110 nM | COc1cc(Nc2c(C#N)cnc3cc(-c4ccc(C=O)n4C)ccc23)c(Cl)cc1Cl [Example 69, 4-(2,4-Dichloro-5-methoxyanilino)-7-(5-formyl-1-methyl-1H-pyrrol-2-yl)-3-quinolinecarbonitrile] | > 10000 nM | 
4 | 10.4 nM and 4 nM | N#Cc1cnc2cc(-c3ccc(CN4CCOCC4)o3)ccc2c1Nc1ccc(Cl)cc1Cl [Example 13, 4-(2,4-Dichloroanilino)-7-[5-(4-morpholinylmethyl)-2-furyl]-3-quinolinecarbonitrile] | 1510 nM | 1590 nM
5 | 44 nM | COc1cc(Nc2c(C#N)cnc3cc(/C=C/C(=O)O)ccc23)c(Cl)cc1Cl [Example 99, (E)-3-[3-Cyano-4-(2,4-dichloro-5-methoxyanilino)-7-quinolinyl]-2-propenoic acid] | > 10000 nM | 
6 | 31 nM | COc1cc(Nc2c(C#N)cnc3cc(/C=C/C(=O)OC(C)(C)C)ccc23)c(Cl)cc1Cl [Example 142, tert-butyl (E)-3-[3-cyano-4-(2,4-dichloro-5-methoxyanilino)-7-quinolinyl]-2-propenoate] | > 10000 nM | 
7 | 0.7 nM and 2.1 nM and 3.1 nM | N#Cc1cnc2cc(-c3cc(CN4CCOCC4)c(CN4CCOCC4)s3)ccc2c1Nc1ccc(Cl)cc1Cl [Example 17, 7-[4,5-Bis(4-morpholinylmethyl)-2-thienyl]-4-(2,4-dichloroanilino)-3-quinolinecarbonitrile] | 310 nM | 
8 | 1.1 nM | COc1cc(Nc2c(C#N)cnc3cc(-c4ccc(CN5CCC[C@@H]5C(N)=O)o4)ccc23)c(Cl)cc1Cl [Example 47, (2R)-1-({5-[3-Cyano-4-(2,4-dichloro-5-methoxyanilino)-7-quinolinyl]-2-furyl}methyl)-2-pyrrolidinecarboxamide] | 1170 nM | 
9 | 2 nM | COc1cc(Nc2c(C#N)cnc3cc(-c4ccc(CN5CCOCC5)s4)ccc23)c(Cl)cc1Cl [Example 23, 4-(2,4-Dichloro-5-methoxyanilino)-7-[5-(4-morpholinylmethyl)-2-thienyl]-3-quinolinecarbonitrile] | 90 nM | 
10 | 77 nM | N#Cc1cnc2cc(C=CCCCN3CCOCC3)ccc2c1Nc1ccc(Cl)cc1Cl (mixture of isomers) [Example 12, 4-(2,4-Dichloroanilino)-7-[(E/Z)-5-(4-morpholin)-1-pentenyl]-3-quinolinecarbonitrile] | > 10000 nM | 
11 | 2.1 nM | COc1cc(Nc2c(C#N)cnc3cc(-c4csc(CN5CCC(O)CC5)c4)ccc23)c(Cl)cc1Cl [Example 192, 4-(2,4-dichloro-5-methoxyanilino)-7-{5-[(4-hydroxy-1-piperidnyl)methyl]-3-thienyl}-3-quinolinecarbonitrile] | 170 nM | 
12 | 160 nM | COc1cc(Nc2c(C#N)cnc3cc(-c4cccc(NC(C)=O)c4)ccc23)c(Cl)cc1Cl [Example 118, N-{3-[3-Cyano-4-(2,4-dichloro-5-methoxyanilino)-7-quinolinyl]phenyl}acetamide] | 3000 nM | 
13 | 130 nM | COc1cc(Nc2c(C#N)cnc3cc(-c4cc5ccccc5o4)ccc23)c(Cl)cc1Cl [Example 119, 7-(1-Benzofuran-2-yl)-4-(2,4-dichloro-5-methoxyanilino)-3-quinolinecarbonitrile] | > 10000 nM | 
14 | 25 nM | COc1cc(Nc2c(C#N)cnc3cc(-c4cccc(CCN5CCOCC5)c4)ccc23)c(Cl)cc1Cl [Example 28, 4-(2,4-Dichloro-5-methoxyanilino)-7-{3-[2-(4-morpholinyl)ethyl]phenyl}-3-quinolinecarbonitrile] | 4100 nM | 
15 | 1.9 nM | COc1cc(Nc2c(C#N)cnc3cc(-c4csc(CN5CCOCC5)c4)c(OC)cc23)c(Cl)cc1Cl [Example 36, 4-(2,4-Dichloro-5-methoxyanilino)-6-methoxy-7-[5-(4-morpholinylmethyl)-3-thienyl]-3-quinolinecarbonitrile] | 160 nM | 200 nM

Continued, molecule first:

Row | Molecule | IC50 (c-Src) | IC50 [1, 2] | IC50 [1, 3]
16 | CCN1CCN(Cc2cc(-c3ccc4c(Nc5cc(OC)c(Cl)cc5Cl)c(C#N)cnc4c3)cs2)CC1 [Example 19, 4-(2,4-Dichloro-5-methoxyanilino)-7-{5-[(4-ethyl-1-piperazinyl)methyl]-3-thienyl}-3-quinolinecarbonitrile] | 2 nM and 1.7 nM | 160 nM | 
17 | COc1cc(Nc2c(C#N)cnc3cc(C#Cc4ccc(C)cc4)ccc23)c(Cl)cc1Cl [Example 141, 4-(2,4-dichloro-5-methoxyanilino)-7-[2-(4-methylphenyl)ethynyl]-3-quinolinecarbonitrile] | 750 nM | > 10000 nM | 
18 | COc1cc(Nc2c(C#N)cnc3cc(C#CCN4CCOCC4)c(OC)cc23)c(Cl)cc1Cl [Example 166, 4-(2,4-dichloro-5-methoxyanilino)-6-methoxy-7-[3-(4-morpholinyl)-1-propynyl]-3-quinoline-carbonitrile] | 5.5 nM | 720 nM | 
19 | COc1cc(Nc2c(C#N)cnc3cc(-c4cnc(CN5CCOCC5)n4C)c(OC)cc23)c(Cl)cc1Cl [Example 232, 4-(2,4-dichloro-5-methoxyanilino)-6-methoxy-7-[1-methyl-2-(4-morpholinylmethyl)-1H-imidazol-5-yl]-3-quinolinecarbonitrile] | 78 nM | 3500 nM | 
20 | COc1cc(Nc2c(C#N)cnc3cc(-c4cccc(N)c4)ccc23)c(Cl)cc1Cl [Example 174, 7-(3-aminophenyl)-4-(2,4-dichloro-5-methoxyanilino)-3-quinolinecarbonitrile] | 95 nM | 5600 nM | 
21 | COc1cc(Nc2c(C#N)cnc3cc(-c4ccc(CN5CCC(CC(=O)O)CC5)cc4)ccc23)c(Cl)cc1Cl [Example 100, (1-{4-[3-Cyano-4-(2,4-dichloro-5-methoxyanilino)-7-quinolinyl]benzyl}-4-piperidinyl)acetic acid] | 0.57 nM | 340 nM | 400 nM
22 | COc1cc(Nc2c(C#N)cnc3cc(-c4cc5ccccc5s4)ccc23)c(Cl)cc1Cl [Example 120] | 170 nM |  | > 10000 nM
23 | COc1cc(Nc2c(C#N)cnc3cc(-c4ccc(CN5CCOCC5)cc4)ccc23)c(Cl)cc1C [Example 234, 4-(2-chloro-5-methoxy-4-methylanilino)-7-[4-(4-morpholinylmethyl)phenyl]-3-quinolinecarbonitrile] | 7.2 nM | 720 nM | 
24 | COc1cc(Nc2c(C#N)cnc3cc(-c4cnc(C=O)n4C)c(OC)cc23)c(Cl)cc1Cl [Example 228, 4-(2,4-dichloro-5-methoxyanilino)-7-(2-formyl-1-methyl-1H-imidazol-5-yl)-6-methoxy-3-quinolinecarbonitrile] | 46 nM | > 10000 nM | 
25 | COc1cc(Nc2c(C#N)cnc3cc(-c4ccc(CN5CCOCC5)o4)ccc23)c(Cl)cc1Cl [Example 53, 4-(2.4-Dichloro-5-methoxyanilino)-7-[5-(4-morpholinylmethyl)-2-furyl]-3-quinolinecarbonitrile] | 2.9 nM | 250 nM | 
26 | CCN1CCN(Cc2cc(-c3ccc4c(Nc5ccc(Cl)cc5Cl)c(C#N)cnc4c3)cs2)CC1 [Example 10, 4-(2,4-Dichloroanilino)-7-{5-[(4-ethyl-1-piperazinyl)methyl]-3-thienyl}-3-quinolinecarbonitrile] | 2.4 nM | 900 nM | 
27 | COc1cc(Nc2c(C#N)cnc3cc(-c4csc(CN5CCOCC5)c4)ccc23)c(Cl)cc1C [Example 80, 4-{2-Chloro-5-methoxy-4-methylanilino)-7-[5-(4-morpholinylmethyl)-3-thienyl]-3-quinolinecarbonitrile] | 1.5 nM | 80 nM | 
28 | 4-[(2,4-Dichloro-5-methoxyphenyl)amino]-7-[4-(4-morpholinyl)phenyl]-3-quinolinecarbonitrile [Example 128] | 3.2 nM |  | 640 nM
29 | COc1cc(Nc2c(C#N)cnc3cc(-c4ccc(CNCCc5ccccn5)cc4)ccc23)c(Cl)cc1Cl [Example 229, 4-(2,4-dichloro-5-methoxyanilino)-7-[4-({[2-(2-pyridinyl)ethyl]amino}methyl)phenyl]-3-quinolinecarbonitrile] | 2.3 nM | 450 nM | 
30 | COc1cc(Nc2c(C#N)cnc3cc(-c4ccc(CN5CCOCC5)cc4)ccc23)c(Cl)cc1Cl [Example 29, 4-(2,4-Dichloro-5-methoxyanilino)-7-[4-(4-morpholinylmethyl)phenyl]-3-quinolinecarbonitrile] | 4.1 nM and 2.5 nM | 540 nM | 500 nM
